Assay results: patent US20060160989A1, “Polypeptide useful as antiallergic/antiasthmatic activity, methods for the preparation thereof, pharmaceutical compositions containing such polypeptide and use thereof” (COUNCIL OF SCIENTIC AND INDUSTRIAL RESEARCH, priority 2002, published 2006)
Like-named read-outs stand apart in the source and are kept apart here.

Key:
[1] = system: passive cutaneous anaphylaxis (PCA); test: Passive cutaneous anaphylaxis (PCA) test in rats; assay type: in vivo; details: for % Anti-PCA activity: rats
Sensitised mast cells = test: Mast cell degranulation by egg albumin in sensitised mast cells (immunological); assay type: in vivo, rats
From the text: (§1) Peptide 96/199 is related to the sequence of IgE Fc fragment.

Normal mast cells = test: Mast cell degranulation by comp 48/80 in normal mast cells (non-immunological); assay type: in vivo, rats
From the text: as §1

[2] = system: sensitised guinea pig ileum; test: Antigen (egg albumin) induced contraction of sensitised guinea pig ileum (Schultz-Dale phenomenon)
Description: (§2) This activity of peptide 96/199 was comarable with disodium cromoglycate (50 mg/kg ip) which is a standard antiallergic drug effective by inhalation.

normal guinea pigs = test: Aerosol test, histamine, guinea pigs; assay type: in vivo
sensitised guinea pigs = test: Aerosol test, egg-albumin, sensitised guinea pigs; assay type: in vivo
Description: as §2

[3] = Other pharmacological studies (cardiovascular, CNS, anti-inflammatory, diuretic); assay type: in vivo
From the text: Other Pharmacological Studies: Peptide 96-199 was further evaluated for its cardiovascular, Central Nervous System (CNS), anti-inflammatory, diuretic activities.

leucine *amino-peptidase = details: enzymatic hydrolysis with leucine aminopeptidase, cited from earlier work
[4] = 50.0 pro (10.0 × 5 d) mg/kg × days
[5] = 0.5 pro (0.1 × 5 d) mg/kg × days
[6] = 1.0 pro (0.2 × 5 d) mg/kg × days
[7] = 2.5 pro (0.5 × 5 d) mg/kg × days
[8] = 5.0 pro (1.0 × 5 d) mg/kg × days

Compound: O=C([O-])c1cc(=O)c2c(OCC(O)COc3cccc4oc(C(=O)[O-])cc(=O)c34)cccc2o1.[Na+].[Na+] [DSCG, disodium cromoglycate, reference compound]
- anti PCA activity ([1]; 50 mg/kg by nasal route): 81%
- % Anti-PCA activity ([1]; 50.0 mg/kg IP): 77%
- % Protection, sensitised mast cells (Immunological: Egg albumin) (Sensitised mast cells; [4]): 71%
- % Protection, normal mast cells (Noninnunological: Comp. 48/80) (Normal mast cells; [4]): 72%
- % Protection to ileum contraction induced by egg albumin ([2]; concentration 1.0 (μg/mL)): No block
- % Protection to ileum contraction induced by egg albumin ([2]; concentration 2.0 (μg/mL)): 18%
- % Protection to ileum contraction induced by egg albumin ([2]; concentration 3.0 (μg/mL)): 59%
- % Protection, Histamine aerosol (normal guinea pigs; 50 mg/kg ip): 17%
- % Protection, Egg-albumin aerosol (sensitised guinea pigs; 50 mg/kg ip): 64%

Compound: L-alanyl-glycyl-glycyl-L-aspartyl-sar-L-l ys [96/199]
- % Anti-PCA activity ([1]; 0.5 mg/kg PO): 43%
- % Anti-PCA activity ([1]; 1.0 mg/kg PO): 48%
- % Anti-PCA activity ([1]; 2.5 mg/kg PO): 74%
- % Anti-PCA activity ([1]; 5.0 mg/kg PO): 82%
- % Protection, sensitised mast cells (Immunological: Egg albumin) (Sensitised mast cells; [5]): 34%
- % Protection, sensitised mast cells (Immunological: Egg albumin) (Sensitised mast cells; [6]): 47%
- % Protection, sensitised mast cells (Immunological: Egg albumin) (Sensitised mast cells; [7]): 66%
- % Protection, sensitised mast cells (Immunological: Egg albumin) (Sensitised mast cells; [8]): 72%
- % Protection, normal mast cells (Noninnunological: Comp. 48/80) (Normal mast cells; [5]): 39%
- % Protection, normal mast cells (Noninnunological: Comp. 48/80) (Normal mast cells; [6]): 55%
- % Protection, normal mast cells (Noninnunological: Comp. 48/80) (Normal mast cells; [7]): 77%
- % Protection, normal mast cells (Noninnunological: Comp. 48/80) (Normal mast cells; [8]): 84%
- % Protection to ileum contraction induced by egg albumin ([2]; concentration 1.0 (μg/mL)): 60%
- % Protection to ileum contraction induced by egg albumin ([2]; concentration 2.0 (μg/mL)): 78%
- % Protection to ileum contraction induced by egg albumin ([2]; concentration 3.0 (μg/mL)): 92%
- % Protection, Histamine aerosol (normal guinea pigs; 2.5 mg/kg po): Nil
- % Protection, Histamine aerosol (normal guinea pigs; 5.0 mg/kg po): 10%
- % Protection, Egg-albumin aerosol (sensitised guinea pigs; 2.5 mg/kg po): 55%
- % Protection, Egg-albumin aerosol (sensitised guinea pigs; 5.0 mg/kg po): 61%
- any other pharmacological activity ([3]; in vivo): devoid of any other pharmacological activity
- cardiovascular, Central Nervous System (CNS), anti-inflammatory, diuretic activities ([3]; up to a dose of 10 mg/kg): No significant effects

Compound: leucine enkephaline
- half life (leucine *amino-peptidase; with beta-Cyclodextrins): 75 m.
- half life (leucine *amino-peptidase; without cyclodextrin): 44 min
